Results reported in paper PMC12668310, “High‐Throughput Synthesis and Screening of a Cyanimide Library Identifies Selective Inhibitors of ISG15‐Specific Protease mUSP18” (Angewandte Chemie (International Ed. in English), 2025).

Test system: cellular ISGylation in EL4 cells
Test: ISGylation accumulation in mouse IFN-β-stimulated EL4 cells (anti-mISG15 western blot)
Type: cell-based
Conditions: 4 h treatment; for effect on cellular ISGylation: anti-mISG15 blot
Description: Figure 6 Inhibition of murine USP18 activity in living cells. a) Gel‐based ABPP potency assessment using a Rho‐mISG15ct‐PA probe in HEK293T cells overexpressing Flag‐mUSP18. At 24 h following transfection, cells were incubated with DMSO or increasing concentrations of indicated inhibitors for 4 h, lysed, and treated with Rho‐mISG15ct‐PA probe. Top panel: fluorescence scan. Middle panel: anti‐Flag western blot. Bottom panel: anti‐GAPDH western blot confirms equal loading. b) Accumulation of ISGylation in mouse IFN‐β‐stimulated EL4 cells. At 24 h following mouse IFN‐β treatment, cells were incubated with DMSO or increasing concentrations of indicated inhibitors for 4 h, lysed, and treated with Rho‐mISG15ct‐PA probe. Top panel: anti‐mISG15 western blot. Middle panel: fluorescence scan. Bottom panel: anti‐β‐actin western blot confirms equal loading.
Ultimately, we were interested in whether USP18 inhibitor treatment could result in a relevant phenotype in cells. USP18 is the major deISGylase to remove ISG15 from target proteins, and genetic inactivation of USP18 isopeptidase activity leads to enhanced ISGylation in vivo and in cells.^[ [26] ^] We therefore examined whether the USP18 inhibitors enhance cellular ISGylation. Accordingly, EL4 cells were stimulated with IFN‐β to induce the ISG15 machinery, prior to treatment with the inhibitors. After cell lysis and SDS‐PAGE, ISGylated proteins were stained by immunoblotting with an ISG15 antibody (Figure 6b, top panel). […] To confirm inhibition of endogenous USP18 in these experiments, samples were post‐lysis treated with Rho‐mISG15ct‐PA probe.
Generation of ISGylation and in-cell inhibition assay
Mouse EL4 cells were stimulated with 300 U/mL mouse IFN-β. At 24 hours following stimulation, cells were incubated with indicated compounds at the indicated final concentrations at 37 °C for 4 hours, then washed twice with PBS and harvested for further […]
Activity-based probe labelling
The in-cell inhibition of DUBs and mUSP18 was assessed using activity-based probe labelling assays. In brief, cell pellets were resuspended in HR buffer (50 mM Tris-HCl, 5 mM MgCl 2, 250 mM sucrose, 2 mM TCEP and a Protease inhibitor tablet (Roche), pH 7.4), and lysed by sonication (Bioruptor, Diagenode, high intensity for 10 minutes with an ON/OFF cycle of 30 seconds) at 4°C. 40 μg clarified cell lysate was incubated with Rhodamine-mISG15ct-propargylamide probe[1] (final concentration 1 μM) or Rhodamine-Ubiquitin-propargylamide probe[13] (final concentration 1 μM) at 37 °C for 30 min. Reactions were stopped by the addition of LDS (lithium dodecyl sulfate) sample buffer (Invitrogen Life Technologies, Carlsbad, CA, USA) containing 2.5% β-mercaptoethanol, followed by boiling for 7 minutes.
SDS-PAGE, in-gel fluorescence scanning, and immunoblotting
Samples were resolved on precast Bis-Tris NuPAGE Gels (Invitrogen, including 4-12%, and 10% for different samples) using MOPS buffer (Invitrogen Life Technologies, Carlsbad, CA, USA). For fluorescence scan, labeled enzymes were visualized by in-gel fluorescence using a Typhoon FLA 9500 imaging system (GE Healthcare Life Sciences) (Rhodamine channel for probe, Cy5 channel for protein marker).
For immunoblotting, proteins were transferred to a nitrocellulose membrane (Protan BA85, 0.45 μm, GE Healthcare) at 300 mA for 3 hours. […]

Cc1cc(C(=O)N[C@H]2C[C@@H]3CN(C#N)C[C@@H]3C2)ccc1C(C)C [BB07CA902]
concentration of maximum accumulation of ISGylation: 10 µM
effect on cellular ISGylation: significantly elevated cellular ISGylation

Cc1cc(C(=O)N[C@H]2C[C@@H]3CN(C#N)C[C@@H]3C2)ccc1Br [BB07CA28]
concentration of maximum accumulation of ISGylation: 10 µM
effect on cellular ISGylation: significantly elevated cellular ISGylation
